According to patent US20050227915A1, “Methods and reagents for treating neurodegenerative diseases and motor deficit disorders” (priority 2001, published 2005):
“Also recorded” adds a separate entry of the source. Where two headings read alike, the source gives them in different places.

Assays:
deacetylase = conditions: cited from earlier work
flies expressing Q48 = assay: Pseudopupil analysis of rhabdomeres in flies expressing Q48 polyglutamine peptides; format: in vivo, Drosophila; conditions: for progressive photoreceptor neuron degeneration: feeding initiated only in adult flies; for distribution of rhabdomeres by day 6: Q48 flies fed inhibitor, data not shown; for neurodegenerative effect of Q48 (photographs of ommatidia): in vivo
Excerpt: (§1) Drosophila stocks and crosses. Expression of polyglutamine-containing peptides is driven by the bipartite expression system activator sequence (UAS)-GAL4 in transgenic flies (Marsh, J. L. et al. (2000) Hum. Mol. Gen. 9, 13-25).
(§2) Injection of plasmids expressing Httex1p with 20 or 93 glutamines produced nine and ten lines, respectively. Two lines with the most severe neuronal phenotype (P463 and P465) were chosen for the experiments described herein. Polyglutamine stocks are w;P(w^+mC=UAS-Q93httexon1)^4F1 and w;P(w^+mC=UAS-Q48+myc/flag)^20. Constructs under the control of a yeast UAS were crossed to flies expressing the yeast GAL4 transcriptional activator (Brand, A. and Perrimon, N., supra) driven by the neuron-specific promoter elav (chromosome 2 driver for Q48 lines, Luo, L. et al. (1994) Genes Dev. 8, 1787-1802, and X-chromosome driver for Htt exon 1 lines, Lin, D. M. & Goodman, C. S. (1994) Neuron 13, 507-523) that is expressed in all neurons from embryogenesis onwards: w;P(w^+mC;w+; elav-GAL4)/CyO, P(w^+mC=Act-GFP)JMR1CyO actin-GFP or w;P(w^+mW.hs=GawB)elavC155.
For testing the effect of Sin3A on polyglutamine phenotypes, we crossed w;P(w^+mC=UAS-Q93httexon1)^4F1 virgins to w;P{w^+mCwPw;elav-GAL4)/Y;Sin3A^08269/Bc Gla males.
Pseudopupil analysis and transgene expression. Pseudopupil analysis allows visualization of the arrangement of rhabdomeres in the ommatidia of the compound eye (Franceschini, N. (1972) in Information processing in the visual systems of arthropods, ed. Wehner, R., pp 75-82). Adult flies were decapitated, one eye was dipped in a drop of nail polish and the head was mounted on a microscope slide. Eyes were analyzed with a Nikon EFD-3/Optiphot-2 scope using a 50× objective, and photographed with a Spot camera. At least 200 ommatidia were scored for each condition. For Western analysis of transgene expression, 20 larvae from each sample were ground in a buffer containing 0.1 M phosphate at pH7.1, 0.3 M sucrose, 0.02 mM phenylthiourea, protease cocktail and 0.1 mM PMSF, and 200 μg of total lysate were loaded per lane.

[1] = system: flies expressing Httex1p Q93; assay: Pseudopupil analysis of rhabdomeres in flies expressing Httex1p Q93; format: in vivo, Drosophila
Excerpt: as §1
as §2, with “w;P(w^+mW.hs=GawB)elavC155. […]” for “w;P(w^+mW.hs=GawB)elavC155.”
Pseudopupil analysis and transgene expression. […] Eyes were analyzed with a Nikon EFD-3/Optiphot-2 scope using a 50× objective, and photographed with a Spot camera. At least 200 ommatidia were scored for each condition. […]

[2] = system: PC12 cells induced to express Httex1p (103QP); assay: Histone acetylation analysis in PC12 cell extract (Western blot); format: cell-based; conditions: PC12 F103QP-EGFP cells, uninduced and induced, 5 mM sodium butyrate for last 24 h
Description: Histone acetylation analysis in PC12 cell extract. PC12 cells, stably transfected with ecdysone-inducible (Invitrogen) F103QP-EGFP were plated, induced with 5 μM ponasterone (Invitrogen) for 48 h, and treated for the last 24 h with 5 mM sodium butyrate. Controls included uninduced and/or non-butyrate-treated cells. Cells were lysed in 1×HAT buffer with 50 mM NaCl, 0.3% NP-40, and a protease-inhibitor cocktail on ice for 10 min. A 50 μg aliquot of whole cell extract was analyzed by Western blot.
Separate, independently-derived, ecdysone-inducible PC12 cell lines, denoted PC12/pBWN:Htt ex1Q103-EGFP cells and PC12/pWN:Httex1Q25-EGFP (E. S. Schweitzer, UCLA), were also analyzed. These clonal cells contain a modified exon 1 of Htt inserted into an expression vector containing the Bombyx ecdysone-regulated element (described in Suhr, S. T., et al. (1998) Proc. Natl. Acad. Sci. U.S.A. 95, 7999-8004).
Twenty-five micrograms of whole cell extracts from PC12 cells stably transfected with plasmids encoding inducible 25QP-EGFP and 103QP-EGFP was analyzed for […]. Control cells (uninduced) and cells induced with 1 μM tebufenizide for 12 h were analyzed by Western blots. Anti-acetylated histone H4, anti-histone H3 and anti-acetylated histone H3 (all from Upstate Biotechnology) were used to determine levels of acetylated histones H3 and H4 relative to levels of total H3.

[3] = system: huntingtin aggregate load; assay: Organotypic hippocampal slice culture assay of polyQ aggregation; format: cell-based, R6/2 mice
Description: The present inventors established that HOP-[…]-CD has no effect on polyQ aggregation over a 5-log concentration range (data not shown) and therefore the HOP-[…]-CD concentration required to complex 250 μM was used as the vehicle. The medium was changed twice weekly and slices were fixed at weekly intervals from 2 weeks in culture. The huntingtin aggregate load was assessed by quantitative indirect immunofluorescence and results were analyzed using the general linear model ANOVA with false discovery rate correction (Hochberg, Y. & Benjamini, Y. (1990) Stat Med 9: 811-8).
We have developed this technique to bridge the gap between wholly in vitro aggregation assays and preclinical trials and allow us to quantify aggregate formation in a system in which aggregates form at the same rate and in the same sequence as they do in vivo.

[4] = Body weight in SAHA preclinical trial; format: in vivo, mice
Description: (§3) Animals. […] Control mice were wild-type female littermates.
(§4) Behavioral analysis: Rotarod impairment was assessed on a Ugo Basile 7650 accelerating Rotarod (Linton Instrumentation, UK), modified as previously described (Hockly et al, submitted). Animals (R6/2: n=13, wild-type: n=12 per treatment group) were tested at 4 weeks of age to establish their baseline performance and then at 8, 10 and 12 weeks of age. Grip strength was measured once per fortnight (Hockly et al. submitted) and animals weighed weekly to the nearest 0.1 g. Statistical analysis of grip strength used ANOVA on the mean grip strength. Rotarod data were analyzed at each time point using repeated measures in a linear mixed effects model (in S-plus).

[5] = Description: Drug Formulation. […] This solution was administered to mice in place of drinking water and replaced weekly.
Animals. Affected mice were hemizygous R6/2 females (Mangiarini, L., et al. (1996) Cell 87: 493-506) (available from the Induced Mutant Resource, Jackson Laboratory, Bar Harbor Me., code B6CBA-TgN (HDexon1)62), bred and reared in our colony by backcrossing R6/2 males to C57BL/6×CBA F1 females. Transgenic animals were identified prior to weaning by PCR of tail-tip DNA and CAG repeat size was determined (Mangiarini, L., et al. (1997) Nat Genet 15: 197-200). Control mice were wild-type female littermates. Mice were weaned into their treatment groups at 4 weeks of age. […] From age 12 weeks, all animals were additionally given mash consisting of powdered chow mixed with the drug solution as given in the drinking bottle. The mice were subject to a 12 hour light (08:00-20:00), 12 hour dark (20:00-08:00) cycle. Living conditions and baseline characteristics of study groupings were standardized as previously described (Hockly et al. submitted).
Assuming that a 20 g mouse drinks 3 ml/day, this corresponds to a dose of 1.33 g/l.
Drug administration commenced at 30 days of age after an initial testing week, which was used to assort the mice into well-matched treatment groups (FIG. 28a).

R6/2 mice = assay: Rotarod analysis of motor impairment; format: in vivo
Description: as §3, §4

O=C(/C=C/c1cccc(C(=O)NO)c1)NO [m-carboxy cinnamic acid bis-hydroxamic acid]
Effective Inhibitory Concentration Range (deacetylase): nM-μM

O=C(CCCCCCC(=O)NO)NO [suberic bis-hydroxamic acid]
Effective Inhibitory Concentration Range (deacetylase): nM-μM

CN(C)c1ccc(C(=O)NCCCCCCCC(=O)NO)cc1 [DBCH, dimethylaminobenzamidylcaprylic hydroxamate]
Effective Inhibitory Concentration Range (deacetylase): nM-μM

Nc1ccccc1NC(=O)c1ccc(CNC(=O)OCc2cccnc2)cc1 [benzamide (MS-27-275), MS-275]
Effective Inhibitory Concentration Range (deacetylase): μM

O=C(O)CCCc1ccccc1 [phenylbutyrate, Phenylbutyrate]
Effective Inhibitory Concentration Range (deacetylase): mM

Oxamflatin
Effective Inhibitory Concentration Range (deacetylase): μM

C=C[C@@H](O)[C@@H]1O[C@H]1/C=C/[C@@H]1O[C@H]1[C@@H](C)O [depudecin, Depudecin]
Effective Inhibitory Concentration Range (deacetylase): μM

CCCC(=O)O [butyrate, Butyric acid]
progressive photoreceptor neuron degeneration (flies expressing Q48; 100 mM butyrate): still prevented; also recorded: arrested | distribution of rhabdomeres by day 6 (flies expressing Q48): same distribution of rhadomeres by day 6 as 1-day-old flies | neurodegenerative effect of Q48 (photographs of ommatidia) (flies expressing Q48): disrupts the neurodegenerative effect of Q48 | number of rhabdomeres per ommatidium at 6 days after eclosion ([1]; flies fed 100 mM butyrate): markedly improved | level of degeneration (loss of rhabdomeres) ([1]; larvae reared on inhibitor-containing food): reduces the level of degeneration observed | levels of histone H4 acetylation [2]: can be reversed by butyrate treatment | levels of histone H4 acetylation ([2]; listed as sodium butyrate): increased | Effective Inhibitory Concentration Range (deacetylase): mM

C/C=C1\NC(=O)[C@H]2CSSCC/C=C/[C@H](CC(=O)N[C@H](C(C)C)C(=O)N2)OC(=O)[C@H](C(C)C)NC1=O [depsipeptide, Depsipeptide]
Effective Inhibitory Concentration Range (deacetylase): nM-μM

O=C(CCCCCCC(=O)Nc1cccnc1)NO [pyroxamide]
Effective Inhibitory Concentration Range (deacetylase): nM-μM

O=C(CCCCCCC(=O)Nc1ccccc1)NO [SAHA, Suberoylanilide hydroxamic acid]
aggregate load versus vehicle control ([3]; 0.025 μM, 0.25 μM or 2.5 μM SAHA in HOP-[…]-CD, 3 and 4 weeks): no difference; also recorded: no effect | toxicity to slice cultures ([3]; 25 μM and 250 μM): toxic | progressive photoreceptor neuron degeneration (flies expressing Q48; 2 μM SAHA): still prevented; also recorded: arrested | distribution of rhabdomeres by day 6 (flies expressing Q48): same distribution of rhadomeres by day 6 as 1-day-old flies | neurodegenerative effect of Q48 (photographs of ommatidia) (flies expressing Q48): disrupts the neurodegenerative effect of Q48 | failure of R6/2 mice to gain weight ([4]; R6/2, 0.67 g/l SAHA): did not prevent; also recorded: did not ameliorate | weight deficit compared to appropriate placebo group ([4]; both wild-type and R6/2, 13 weeks, 0.67 g/l SAHA): ~18% | weight gain compared to littermates on placebo ([4]; wild-type and R6/2, 0.67 g/l SAHA): failed to gain weight to the same extent; also recorded: failing to gain weight at the same rate as placebo-treated mice | effective concentration (deacetylase): ~2.5 µM | deaths before termination of the experiments at 13 weeks ([5]; 0.67 g/l, R6/2 and wild-type): no R6/2 mice or wild-type mice died | OUTCOME ([5]; 1.33 g/1, WT and R6/2, oral, 3 weeks): no adverse symptoms | mice that died at around 6 weeks of age ([5]; 1.33 g/l from 30 days of age, R6/2): 2/13 | weight less than mice on the corresponding placebo ([5]; 1.33 g/l from 30 days of age, after 2 weeks, wild-type and R6/2, data not shown): more than 20% | mice that died at around 6 weeks of age ([5]; 1.33 g/l from 30 days of age, wild-type): 2/12 | OUTCOME ([5]; DE to 2 g/1, R6/2, oral, 1 week): weight loss and one mouse (out of 4) died within one week | OUTCOME ([5]; DE to 2.67 g/1+, WT, oral, 3 weeks): dramatic weight loss | toxicity ([5]; administration initiated at 30 days, doses […]1.33 g/l, wild-type and R6/2): toxic | Rotarod performance / motor impairment versus placebo (R6/2 mice; R6/2, 0.67 g/l SAHA in HOP-[…]-CD in drinking water): strong and consistent improvement; also recorded: dramatically improves Rotarod performance; also recorded: highly significant improvement; also recorded: dramatically improve the motor impairment | Rotarod latency to fall (R6/2 mice; R6/2, 0.67 g/l SAHA, 8 weeks of age): 207 s | Rotarod latency to fall (R6/2 mice; R6/2, 0.67 g/l SAHA, 10 weeks of age): 187 s | Rotarod latency to fall (R6/2 mice; R6/2, 0.67 g/l SAHA, 12 weeks of age): 144 s | delay in the decline in Rotarod performance (R6/2 mice; R6/2, 0.67 g/l SAHA, 12 weeks versus placebo at 8 weeks): delay by as much as one month | Rotarod performance versus placebo (R6/2 mice; wild-type mice, 0.67 g/l SAHA): no significant difference

O=C(CCCCCN1C(=O)c2cccc3cccc(c23)C1=O)NO [scriptaid, Scriptaid]
Effective Inhibitory Concentration Range (deacetylase): nM-μM
